ChEMBL document CHEMBL6109044, “From challenges to solutions: A review of fourth-generation EGFR tyrosine kinase inhibitors to overcome the C797S triple mutation in non-small cell lung cancer” (Eur J Med Chem, 2025)
One block for each compound: values may come before it.

What was measured:
[1] = target: T1, Epidermal growth factor receptor (Homo sapiens, UniProt P00533, C797S/L858R/T790M); test: Inhibition of EGFR L858R/T790M/C797S triple mutant (unknown origin)
[2] = target: Epidermal growth factor receptor (Homo sapiens, UniProt P00533, L858R/T790M); test: Inhibition of EGFR L858R/T790M double mutant (unknown origin)
Chain of Epidermal growth factor receptor (Homo sapiens, UniProt P00533, L858R/T790M) (P00533 25-1210 T790M/L858R limits assumed): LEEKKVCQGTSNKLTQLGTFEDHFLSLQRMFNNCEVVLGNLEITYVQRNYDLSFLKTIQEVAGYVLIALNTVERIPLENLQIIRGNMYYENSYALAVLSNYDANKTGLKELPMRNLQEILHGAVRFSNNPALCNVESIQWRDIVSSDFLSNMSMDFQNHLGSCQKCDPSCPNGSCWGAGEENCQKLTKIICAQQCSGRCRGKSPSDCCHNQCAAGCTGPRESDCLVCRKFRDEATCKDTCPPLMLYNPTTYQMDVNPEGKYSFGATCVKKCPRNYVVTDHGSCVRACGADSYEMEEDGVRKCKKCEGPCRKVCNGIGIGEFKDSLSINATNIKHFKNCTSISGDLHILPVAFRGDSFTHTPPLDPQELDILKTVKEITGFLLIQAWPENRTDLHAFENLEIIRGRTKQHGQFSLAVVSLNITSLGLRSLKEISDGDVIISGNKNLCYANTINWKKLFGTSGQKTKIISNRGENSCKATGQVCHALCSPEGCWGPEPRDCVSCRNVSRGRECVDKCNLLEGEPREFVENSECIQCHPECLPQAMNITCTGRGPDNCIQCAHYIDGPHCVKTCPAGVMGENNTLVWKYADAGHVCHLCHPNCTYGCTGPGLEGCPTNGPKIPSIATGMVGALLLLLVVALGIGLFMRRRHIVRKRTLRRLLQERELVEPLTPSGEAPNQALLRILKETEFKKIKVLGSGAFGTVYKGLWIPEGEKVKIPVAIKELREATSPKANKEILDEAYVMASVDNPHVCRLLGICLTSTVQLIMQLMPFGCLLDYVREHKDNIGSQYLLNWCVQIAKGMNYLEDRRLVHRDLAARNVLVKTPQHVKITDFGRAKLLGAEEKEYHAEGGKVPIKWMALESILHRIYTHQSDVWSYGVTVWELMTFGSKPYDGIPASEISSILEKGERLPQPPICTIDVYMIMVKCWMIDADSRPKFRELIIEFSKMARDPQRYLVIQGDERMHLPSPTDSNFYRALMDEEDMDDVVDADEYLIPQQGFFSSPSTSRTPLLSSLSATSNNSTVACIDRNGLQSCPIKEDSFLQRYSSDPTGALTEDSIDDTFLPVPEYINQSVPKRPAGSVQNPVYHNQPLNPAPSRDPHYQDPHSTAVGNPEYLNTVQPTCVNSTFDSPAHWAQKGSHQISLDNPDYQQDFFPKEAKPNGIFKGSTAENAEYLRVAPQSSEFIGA

[3] = Antiproliferative activity against mouse Ba/F3 EGFR-Del19/T790M/C797S cells assessed as reduction in cell viability at 10 uM incubated for 72 hrs by MTT assay relative to control; assay type: functional
[4] = target: T2, Epidermal growth factor receptor (Homo sapiens, UniProt P00533); test: Inhibition of wild type EGFR (unknown origin)
T2 sequence (P00533 whole entry): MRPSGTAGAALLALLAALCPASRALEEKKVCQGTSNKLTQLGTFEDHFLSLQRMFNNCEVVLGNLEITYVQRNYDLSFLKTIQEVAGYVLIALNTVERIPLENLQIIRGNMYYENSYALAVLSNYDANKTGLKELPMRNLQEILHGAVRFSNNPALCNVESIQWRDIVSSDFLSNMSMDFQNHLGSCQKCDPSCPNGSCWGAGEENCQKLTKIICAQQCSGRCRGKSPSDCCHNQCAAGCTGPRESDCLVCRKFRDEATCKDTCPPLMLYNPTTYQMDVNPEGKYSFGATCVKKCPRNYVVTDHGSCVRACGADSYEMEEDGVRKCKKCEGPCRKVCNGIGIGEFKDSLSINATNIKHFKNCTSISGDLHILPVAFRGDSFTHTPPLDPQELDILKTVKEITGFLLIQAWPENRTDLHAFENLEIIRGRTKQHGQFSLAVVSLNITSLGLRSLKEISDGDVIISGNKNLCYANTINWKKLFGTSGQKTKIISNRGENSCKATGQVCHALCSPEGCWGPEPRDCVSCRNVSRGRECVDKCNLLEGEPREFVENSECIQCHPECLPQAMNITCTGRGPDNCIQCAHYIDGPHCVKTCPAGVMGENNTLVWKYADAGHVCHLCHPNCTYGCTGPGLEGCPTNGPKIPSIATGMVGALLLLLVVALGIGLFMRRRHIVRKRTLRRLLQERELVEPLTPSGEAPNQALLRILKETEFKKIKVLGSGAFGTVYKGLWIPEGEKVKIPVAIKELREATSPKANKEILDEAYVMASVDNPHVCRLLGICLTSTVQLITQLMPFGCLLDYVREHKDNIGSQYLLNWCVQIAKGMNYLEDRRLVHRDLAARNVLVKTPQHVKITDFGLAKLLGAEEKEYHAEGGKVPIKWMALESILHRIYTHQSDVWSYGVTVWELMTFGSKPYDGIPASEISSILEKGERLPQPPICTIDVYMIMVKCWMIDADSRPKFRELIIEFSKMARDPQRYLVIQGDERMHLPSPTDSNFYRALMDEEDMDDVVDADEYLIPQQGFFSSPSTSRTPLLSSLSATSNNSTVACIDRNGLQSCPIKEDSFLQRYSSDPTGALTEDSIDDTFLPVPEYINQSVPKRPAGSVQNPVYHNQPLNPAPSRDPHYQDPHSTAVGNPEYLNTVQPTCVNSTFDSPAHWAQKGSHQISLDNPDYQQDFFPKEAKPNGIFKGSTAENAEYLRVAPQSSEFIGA

[5] = target: T2, Epidermal growth factor receptor; test: Inhibition of wild type EGFR (unknown origin) by HTRF assay
[6] = target: Epidermal growth factor receptor (Homo sapiens, UniProt P00533, C797S/EX19DEL/T790M); test: Inhibition of EGFR Del19/T790M/C797S triple mutant (unknown origin)
[7] = system: Epidermal growth factor receptor (Homo sapiens), P00533 [L858R,T790M,C797S]; settings: dose 1.0 nM
Chain of Epidermal growth factor receptor (Homo sapiens), P00533 [L858R,T790M,C797S] (P00533 whole entry T790M/C797S/L858R): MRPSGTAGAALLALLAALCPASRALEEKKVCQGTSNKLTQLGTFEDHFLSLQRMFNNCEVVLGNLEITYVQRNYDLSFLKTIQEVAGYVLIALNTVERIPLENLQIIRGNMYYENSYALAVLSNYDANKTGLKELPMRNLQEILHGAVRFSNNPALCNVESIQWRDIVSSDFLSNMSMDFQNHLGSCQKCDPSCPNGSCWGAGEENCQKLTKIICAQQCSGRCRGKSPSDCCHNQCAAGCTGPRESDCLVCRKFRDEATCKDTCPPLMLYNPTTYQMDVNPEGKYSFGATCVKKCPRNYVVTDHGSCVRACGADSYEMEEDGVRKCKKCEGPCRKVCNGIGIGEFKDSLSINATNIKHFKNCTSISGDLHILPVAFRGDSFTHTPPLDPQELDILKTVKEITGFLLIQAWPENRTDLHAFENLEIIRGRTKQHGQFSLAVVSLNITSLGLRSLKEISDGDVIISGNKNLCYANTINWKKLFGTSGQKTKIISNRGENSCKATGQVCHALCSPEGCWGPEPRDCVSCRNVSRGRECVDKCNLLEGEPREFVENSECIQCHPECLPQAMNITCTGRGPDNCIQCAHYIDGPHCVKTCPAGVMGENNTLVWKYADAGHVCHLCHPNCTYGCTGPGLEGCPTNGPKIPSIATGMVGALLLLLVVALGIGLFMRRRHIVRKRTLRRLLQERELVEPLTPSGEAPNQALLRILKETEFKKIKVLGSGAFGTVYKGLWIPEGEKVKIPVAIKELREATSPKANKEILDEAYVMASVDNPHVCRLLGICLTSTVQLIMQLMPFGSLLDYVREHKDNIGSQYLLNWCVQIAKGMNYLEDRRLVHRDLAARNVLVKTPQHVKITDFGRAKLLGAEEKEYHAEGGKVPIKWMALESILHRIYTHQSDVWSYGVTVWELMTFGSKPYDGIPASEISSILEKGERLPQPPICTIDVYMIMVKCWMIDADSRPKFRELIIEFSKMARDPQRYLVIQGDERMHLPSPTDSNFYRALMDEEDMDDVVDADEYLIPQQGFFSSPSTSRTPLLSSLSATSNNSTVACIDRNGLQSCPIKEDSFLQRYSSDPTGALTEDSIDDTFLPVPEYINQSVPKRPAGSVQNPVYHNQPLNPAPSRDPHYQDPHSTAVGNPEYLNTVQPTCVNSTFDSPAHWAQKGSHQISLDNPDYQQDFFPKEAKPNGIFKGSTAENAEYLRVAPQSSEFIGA

[8] = system: Epidermal growth factor receptor (Homo sapiens), P00533 [L858R,T790M,C797S]; settings: dose 0.05 nM
[9] = system: Epidermal growth factor receptor (Homo sapiens), P00533 [L858R,T790M,C797S]; settings: dose 200.0 nM, tested as the 2H-labelled form
[10] = Antiproliferative activity against mouse Ba/F3 EGFR-T790M/C797S/L858R cells assessed as reduction in cell growth incubated for 72 hrs by CCK-8 assay; assay type: functional, cell-based
[11] = Antiproliferative activity against mouse Ba/F3 EGFR-Del19/T790M/C797S cells assessed as reduction in cell growth incubated for 72 hrs by CCK-8 assay; assay type: functional, cell-based
[12] = Antiproliferative activity against mouse Ba/F3 EGFR-Del19/T790M/C797S cells; assay type: functional, cell-based
[13] = Antiproliferative activity against mouse Ba/F3 EGFR cells; assay type: functional, cell-based
cells = settings: Mus musculus, Ba/F3 EGFR-T790M/C797S/L858R
NIH3T3 [14] = test: Antiproliferative activity against mouse NIH3T3 cells harboring EGFR del19/T790M/C797S assessed as reduction in cell growth measured for 4 to 7 days by CellTiter-Glo Luminescent assay; assay type: functional, cell-based
NIH3T3 [15] = test: Antiproliferative activity against mouse NIH3T3 cells harboring EGFR L858R/T790M/C797S assessed as reduction in cell growth measured for 4 to 7 days by CellTiter-Glo Luminescent assay; assay type: functional, cell-based
A549 = test: Antiproliferative activity against human A549 cells; assay type: functional, cell-based
[16] = target: T1, Epidermal growth factor receptor; test: Inhibition of EGFR L858R/T790M/C797S triple mutant (unknown origin) at 20 nM relative to control
[17] = Antiproliferative activity against human NCI-H1975 EGFR T790M/C797S/L858R cells; assay type: functional, cell-based

T1 sequence (P00533 25-1210 T790M/C797S/L858R limits assumed): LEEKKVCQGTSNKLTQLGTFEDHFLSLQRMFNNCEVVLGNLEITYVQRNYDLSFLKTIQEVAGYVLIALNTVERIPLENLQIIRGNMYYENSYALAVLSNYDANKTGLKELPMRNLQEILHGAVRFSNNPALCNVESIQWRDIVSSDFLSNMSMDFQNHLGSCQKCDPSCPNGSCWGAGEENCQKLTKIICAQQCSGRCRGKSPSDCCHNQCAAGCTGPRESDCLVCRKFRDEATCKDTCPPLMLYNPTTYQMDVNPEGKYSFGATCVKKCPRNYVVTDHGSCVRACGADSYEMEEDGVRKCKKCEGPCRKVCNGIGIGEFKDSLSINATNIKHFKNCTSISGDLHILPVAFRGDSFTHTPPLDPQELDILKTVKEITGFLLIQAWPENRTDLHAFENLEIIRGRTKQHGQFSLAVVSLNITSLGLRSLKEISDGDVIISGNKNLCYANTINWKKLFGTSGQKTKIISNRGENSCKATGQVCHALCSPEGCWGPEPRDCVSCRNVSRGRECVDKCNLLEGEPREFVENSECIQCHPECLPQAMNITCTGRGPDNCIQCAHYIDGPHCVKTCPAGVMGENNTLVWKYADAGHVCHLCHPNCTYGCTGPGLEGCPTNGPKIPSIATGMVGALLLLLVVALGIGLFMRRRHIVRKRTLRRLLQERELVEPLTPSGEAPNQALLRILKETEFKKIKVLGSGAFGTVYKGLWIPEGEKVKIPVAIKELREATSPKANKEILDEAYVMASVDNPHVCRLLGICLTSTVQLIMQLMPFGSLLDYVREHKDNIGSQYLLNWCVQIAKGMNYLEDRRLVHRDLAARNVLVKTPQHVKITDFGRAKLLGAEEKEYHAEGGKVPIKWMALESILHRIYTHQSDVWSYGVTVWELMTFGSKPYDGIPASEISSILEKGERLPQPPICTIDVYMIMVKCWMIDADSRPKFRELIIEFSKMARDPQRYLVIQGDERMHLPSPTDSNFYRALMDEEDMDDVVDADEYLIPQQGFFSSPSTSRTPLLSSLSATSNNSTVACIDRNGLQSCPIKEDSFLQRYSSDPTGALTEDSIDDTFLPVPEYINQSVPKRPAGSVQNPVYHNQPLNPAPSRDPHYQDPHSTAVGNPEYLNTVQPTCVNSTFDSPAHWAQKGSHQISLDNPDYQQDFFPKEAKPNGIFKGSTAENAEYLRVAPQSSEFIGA

SMILES: CN1CCC(c2ccc(-c3ccc4c(c3)C(=O)N(C(C(=O)Nc3nccs3)c3cc(F)ccc3O)C4)cc2)CC1 (stereo not drawn)
- IC50 [1]: 0.083 nM
- IC50 [2]: 0.063 nM

SMILES: Oc1ccccc1-c1nc(NCC2CCOC2)c2ccccc2n1 (stereo not drawn)
- Activity [3]: 91%

SMILES: CN1CCN(c2ccc(Nc3ncc(Cl)c(Nc4ccccc4P(C)(C)=O)n3)cc2Br)CC1
- IC50 [10]: 90 nM
- IC50 [11]: 120 nM

SMILES: CCC(=O)N[C@H]1CC[C@@H](N2C(=O)N(c3ccccc3Cl)Cc3cnc(Nc4ccc(N5CCN(C)CC5)c(C)c4)nc32)CC1
- IC50 [10]: 320 nM

SMILES: N#Cc1ccc(O)c(-c2nc(NCc3cccnc3)c3ccccc3n2)c1
- IC50 [4]: > 50 nM

SMILES: C=CC(=O)Nc1cc(Nc2nccc(-c3cn(C)c4ccccc34)n2)c(OC)cc1N(C)CCN(C)C [OSIMERTINIB]
- IC50 [10]: 4140 nM
- IC50 [11]: 3380 nM
- IC50 [12]: > 1000 nM
- IC50 [13]: 171 nM
- IC50 (NIH3T3 [14]): 1200 nM
- IC50 (NIH3T3 [15]): 2700 nM
- IC50 (cells): > 1000 nM

SMILES: N#Cc1ccc(O)c(-c2nc(NCc3ncccn3)c3ccccc3n2)c1
- IC50 [17]: 1200 nM

The next lines start with results.

- IC50 [1]: 88 nM
- IC50 [4]: 16 nM
SMILES: C=CC(=O)C1CCC[C@@H](n2nc(-c3ccc4ccccc4c3)c3c(N)ncnc32)C1 (stereo partly drawn)

- IC50 [5]: 0.4 nM
SMILES: CCC(=O)Nc1cccc(-c2c(-c3ccc(N4CCN(C)CC4)cc3)[nH]c3ncnc(OCC(C)C)c23)c1

- IC50 [6]: 5 nM
- IC50 [1]: 8 nM
- IC50 [4]: 184 nM
SMILES: COc1cc(N2CCC(N3CCN(C)CC3)CC2)ccc1Nc1ncc(Cl)c(Nc2ccccc2NS(C)(=O)=O)n1

- inhibition ([7]; tested as the 2H-labelled form): 86.9%
- inhibition ([8]; tested as the 2H-labelled form): 59%
- inhibition [9]: 99%
SMILES: Cc1cc(Nc2ncc(Br)c(Nc3ccccc3NS(=O)(=O)C3CC3)n2)ccc1N1CCN(C)CC1

- IC50 (cells): 43.3 nM
SMILES: CCc1cc(Nc2ncc(Cl)c(Nc3ccc(C)c(C)c3P(C)(C)=O)n2)c(OC)cc1N1CC2(CCN(C)CC2)C1
- IC50 [12]: 128 nM
- IC50 [13]: > 1000 nM

- IC50 [4]: 0.92 nM
SMILES: CC(C)n1c2cc(Nc3ccnc(-c4cnn(S(=O)(=O)C5CC5)c4)n3)ncc2c2c(OCC(F)(F)F)cc(N3CCN(C)CC3)cc21
- IC50 (NIH3T3 [14]): 20 nM
- IC50 (NIH3T3 [15]): 45 nM

- IC50 (A549): 957 nM
- inhibition [16]: 97.2%
- IC50 (cells): 16 nM
SMILES: [2H]C([2H])([2H])c1cc(Nc2ncc(Br)c(Nc3ccccc3NS(=O)(=O)C3CC3)n2)ccc1N1CCN(C([2H])([2H])[2H])CC1
- IC50 [12]: 12 nM

- inhibition [7]: 57%
- inhibition [8]: 4.82%
- IC50 (cells): 15.6 nM
SMILES: COc1cc(N2CCC(N3CCN(C)CC3)CC2)ccc1Nc1ncc(Cl)c(Nc2ccccc2P(C)(C)=O)n1 [BRIGATINIB]
- IC50 [12]: 139 nM
